According to ChEMBL document CHEMBL1126104, “Synthesis and antiviral activity of some new S-adenosyl-L-homocysteine derivatives” (1992):
In brackets after ≈: the same amount, converted by molar mass.

Columns and labels:
[1] = tested on: Human alphaherpesvirus 2; assay: Antiviral activity against HSV-2(G) strain in primary rabbit kidney (PRK) / embryonic skin-muscle (E6SM) fibroblast culture lines; assay type: functional; settings: Human alphaherpesvirus 2, Muscle tissue
[2] = tested on: Vesicular stomatitis virus; assay: Antiviral activity against vesicular stomatitis virus (VSV) in HeLa cell culture lines,; assay type: functional
[3] = tested on: Mammalian orthoreovirus 1; assay: Antiviral activity against reovirus type 1 in Vero cell culture lines; assay type: functional
[4] = tested on: Coxsackievirus B4; assay: Antiviral activity against coxsackie B4 virus in HeLa cell culture lines; assay type: functional; settings: Enterovirus B
[5] = tested on: Sindbis virus; assay: Antiviral activity against sindbis virus in Vero cell culture lines; assay type: functional
[6] = tested on: Vaccinia virus; assay: Antiviral activity against vaccinia virus (VV) in primary rabbit kidney (PRK) / embryonic skin-muscle (E6SM) fibroblast culture lines; assay type: functional; settings: Orthopoxvirus vaccinia, Muscle tissue
[7] = tested on: Human alphaherpesvirus 1; assay: Antiviral activity against HSV-1(KOS) strain in primary rabbit kidney (PRK) / embryonic skin-muscle (E6SM) fibroblast culture lines; assay type: functional; settings: Human alphaherpesvirus 1, Muscle tissue
[8] = tested on: Human respirovirus 3; assay: Antiviral activity against parainfluenza virus type 3 in Vero cell culture lines; assay type: functional
[9] = tested on: Semliki Forest virus; assay: Antiviral activity against semliki forest virus (SFV) in Vero cell culture lines; assay type: functional
[10] = tested on: Human immunodeficiency virus 1; assay: Antiviral activity against (HIV-1) in MT-4 cells Value in parentheses is inhibitory concentration for cell growth (MT-4); assay type: functional, MT4
[11] = tested on: Vesicular stomatitis virus; assay: Antiviral activity against vesicular stomatitis virus (VSV) in primary rabbit kidney (PRK) / embryonic skin-muscle (E6SM) fibroblast culture lines; assay type: functional; settings: Muscle tissue
[12] = tested on: Coxsackievirus B4; assay: Antiviral activity against coxsackie B4 in Vero cell culture lines; assay type: functional; settings: Enterovirus B
[13] = tested on: Poliovirus 1; assay: Antiviral activity against polio virus type 1 in HeLa cell culture lines; assay type: functional; settings: Enterovirus C

SMILES | MIC [1] [µg/mL] | MIC [2] [µg/mL] | MIC [3] [µg/mL] | MIC [4] [µg/mL] | MIC [5] [µg/mL] | MIC [6] [µg/mL] | MIC [7] [µg/mL] | MIC [8] [µg/mL] | MIC [9] [µg/mL] | MIC [10] [µg/mL] | MIC [11] [µg/mL] | MIC [12] [µg/mL] | MIC [13] [µg/mL]
Nc1ncnc2c([C@H]3CC[C@@H](CCl)O3)n[nH]c12 | > 200 | > 400 | > 200 | > 400 | > 200 | > 400 | > 200 | > 200 | > 400 | > 100 | > 400 | > 200 | > 400
Nc1nccc2c1ncn2[C@H]1CC[C@@H](CO)O1 | > 100 | > 200 | > 100 | > 200 | > 100 | > 100 | > 200 | > 100 | > 100 | > 100 | > 100 | > 100 | > 200
Nc1ncnc2c1ncn2[C@@H]1O[C@H](CCl)C[C@H]1O | > 100 | > 200 | > 40 | > 200 | > 40 | > 200 | > 200 | > 40 | > 40 | > 100 | > 400 | > 40 | > 200
CC(C)(C)C(=O)OCn1nc([C@@H]2O[C@H](CO)C[C@H]2O)c2ncnc(N)c21 | > 100 | > 100 | > 100 | > 100 | > 100 | > 100 | > 100 | > 100 | > 100 | > 20 | > 100 | > 100 | > 100
Nc1ncnc2c([C@@H]3O[C@H](CSCCC(N)C(=O)O)C[C@H]3O)n[nH]c12 (some centres undefined) | > 40 | > 40 | > 40 | > 40 | > 40 | > 40 | > 40 | > 40 | > 40 | > 100 | > 40 | > 40 | > 40
Nc1ncnc2c1ncn2[C@@H]1O[C@H](CSCCC(N)C(=O)O)C[C@H]1O (some centres undefined) | > 100 | > 200 | > 200 | > 200 | > 200 | > 200 | > 100 | > 200 | > 100 | > 100 | > 100 | > 200 | > 200
COC(=O)C(CCSC[C@@H]1C[C@@H](O)[C@H](n2ccc3c(N)ncnc32)O1)NC(=O)C(F)(F)F (some centres undefined) | > 200 | 300 (≈ 628 µM) | 40 (≈ 83.8 µM) | > 200 | > 400 | 70 (≈ 147 µM) | > 200 | > 200 | > 400 | > 100 | 20 (≈ 41.9 µM) | > 200 | > 400
Nc1nccc2ncn([C@H]3C[C@H](O)[C@@H](CO)O3)c12 | 100 (≈ 400 µM) | > 200 | > 400 | > 200 | > 400 | > 200 | 150 (≈ 599 µM) | > 400 | > 400 | > 50 | > 200 | > 400 | > 200
Nc1ncnc2c([C@H]3C[C@@H](O)[C@@H](CO)O3)n[nH]c12 | > 400 | > 400 | > 400 | > 400 | > 400 | > 400 | > 400 | > 400 | > 400 | > 100 | > 400 | 300 (≈ 1190 µM) | > 400
COC(=O)C(N)CCSC[C@H]1OC(n2ccc3c(N)ncnc32)[C@H](O)[C@@H]1O (some centres undefined) | 20 (≈ 50.3 µM) | 20 (≈ 50.3 µM) | > 200 | > 200 | > 200 | 4 (≈ 10.1 µM) | > 100 | > 200 | > 200 | > 20 | 20 (≈ 50.3 µM) | > 100 | > 200
CCOC(=O)C(CCSC[C@H]1OC(n2ccc3c(N)ncnc32)[C@H](O)[C@@H]1O)NC(=O)C(F)(F)F (some centres undefined) | 10 (≈ 19.7 µM) | 4 (≈ 7.88 µM) | > 20 | 20 (≈ 39.4 µM) | > 20 | 7 (≈ 13.8 µM) | 7 (≈ 13.8 µM) | > 20 | > 40 | > 4 | 2 (≈ 3.94 µM) | 7 (≈ 13.8 µM) | 20 (≈ 39.4 µM)
CC(=O)NC(CCSC[C@H]1OC(n2ccc3c(N)ncnc32)[C@H](O)[C@@H]1O)C(=O)OC(C)C (some centres undefined) | 40 (≈ 85.6 µM) | 20 (≈ 42.8 µM) | > 70 | 70 (≈ 150 µM) | > 100 | 10 (≈ 21.4 µM) | > 100 | > 100 | > 200 | > 4 | 10 (≈ 21.4 µM) | 40 (≈ 85.6 µM) | 100 (≈ 214 µM)
CCCCOC(=O)C(N)CCSC[C@H]1OC(n2ccc3c(N)ncnc32)[C@H](O)[C@@H]1O (some centres undefined) | > 10 | 7 (≈ 15.9 µM) | 70 (≈ 159 µM) | > 40 | > 200 | 2 (≈ 4.55 µM) | 20 (≈ 45.5 µM) | 150 (≈ 341 µM) | > 200 | > 1.6 | 20 (≈ 45.5 µM) | > 200 | > 100
CC(C)(C)C(=O)ONC(CCSC[C@H]1OC(n2ccc3c(N)ncnc32)[C@H](O)[C@@H]1O)C(=O)O (some centres undefined) | > 100 | > 400 | > 400 | > 400 | > 400 | 20 (≈ 41.4 µM) | > 100 | > 400 | > 400 | > 200 | > 100 | > 400 | > 400
CCCOC(=O)C(N)CCSC[C@H]1OC(n2ccc3c(N)ncnc32)[C@H](O)[C@@H]1O (some centres undefined) | 2 (≈ 4.7 µM) | 20 (≈ 47 µM) | > 70 | > 100 | > 70 | 1 (≈ 2.35 µM) | 10 (≈ 23.5 µM) | > 70 | > 150 | > 20 | 2 (≈ 4.7 µM) | 70 (≈ 165 µM) | > 100
Nc1ncnc2c(C3O[C@H](CCl)[C@@H](O)[C@H]3O)n[nH]c12 (some centres undefined) | > 200 | > 200 | > 100 | > 400 | > 100 | 300 (≈ 1050 µM) | > 200 | 70 (≈ 245 µM) | > 100 | > 100 | > 400 | 70 (≈ 245 µM) | > 400
CCOC(=O)C(CCSC[C@H]1OC(n2ccc3c(N)ncnc32)[C@H](O)[C@@H]1O)NC(C)=O (some centres undefined) | 20 (≈ 44.1 µM) | > 20 | > 30 | 70 (≈ 154 µM) | > 70 | 15 (≈ 33.1 µM) | 70 (≈ 154 µM) | > 40 | > 100 | > 4 | 5 (≈ 11 µM) | 20 (≈ 44.1 µM) | 70 (≈ 154 µM)
COCC(=O)NC(CCSC[C@H]1OC(n2ccc3c(N)ncnc32)[C@H](O)[C@@H]1O)C(=O)OC(C)C (some centres undefined) | 70 (≈ 141 µM) | 100 (≈ 201 µM) | > 200 | > 200 | > 200 | 7 (≈ 14.1 µM) | > 150 | > 200 | > 200 | > 100 | 20 (≈ 40.2 µM) | > 100 | > 200
